Legend:
[1] = E1%: relative UV absorbance of a 1% w/w solution; assay type: physicochemical; details: relative measure of the UV absorbance of a 1% w/w solution of the compound
Source text: This example compares the ultraviolet light absorbing properties and water resistance properties of compounds of the invention.
E1% is a relative measure of the UV absorbance of a 1% w/w solution of the compound.

[2] = log P (octanol/water partition coefficient) by HPLC method of Leahy, Taylor and Wait; assay type: physicochemical; details: octanol in conjunction with water
Source text: Water resistance of compounds of formula I may be evaluated by reference to the partition coefficient of the compounds using a non-polar solvent such as octanol in conjunction with water. The term log P, where P is the partition coefficient, where used herein refers to the log P value determined by the HPLC method of David E Leahy, Peter J Taylor and Alan R Wait, Ouant. Struct.-Act Relat., 8, 17-31 (1989) at pages 23 and 24. Log P may be used to directly compare the lipophilicity of a variety of molecules as described by Hansch, C., and Leo, A. J., Substituent Constants for Correlation Analysis in Chemistry and Biology, John Wiley, New York 1979.
Struct. Act Relat., 8, 17-31 (1989) and the results are recorded in Table 6.

Compound | E1% [1] | chromatographic logP [2]
CCC(=O)C1=CN(CC(C)C)CCC1(C)C [Compound 1, I-(2-Methylpropyl)-3-propionyl-4,4-dimethyl-1,4,5,6-tetrahydropyridine] | 131 | 3.2
CC(=O)C1=CN(CC(C)C)CCC1(C)C [Compound 2, I-(2-Methylpropyl) -3-acetyl-4,4-dimethyl-1,4,5,6-tetrahydropyridine] | 140 | 2.7
CCCC(=O)C1=CN(CC(C)C)CCC1(C)C [Compound 3, 1-(2-Methylpropyl) -3-butyryl-4,4-dimethyl-1,4,5,6-tetrahydropyridine] | 124 | 3.7
CC(C)CN1C=C(C(=O)C(F)(F)F)C(C)(C)CC1 [Compound 4, 1-(2-Methylpropyl) -3-trifluoroacetyl-4,4-dimethyl-1,4,5,6-tetrahydropyridine] | 112 | 3
CCCCCCCC(=O)C1=CN(CC(C)C)CCC1(C)C [Compound 5, 1-(2-Methylpropyl) -3-octanoyl-4,4-dimethyl-1,4,5,6-tetrahydropyridine] | 100 | 5.8
CCCCCCCCCCCCCCCCN1C=C(C(=O)CC)C(C)(C)CC1 [Compound 6, 1-Palmityl-3-propionyl-4,4-dimethyl-1,4,5,6-tetrahydropyridine] | 75 | 9.4
CCCCCCCC(=O)C1=CN(CC)CCC1(C)C [Compound 7, 1-Ethyl-3-octanoyl--4,4-dimethyl-1,4,5,6-tetrahydropyridine] | 110 | 4.8
CCCCC(CC)CN1C=C(C(=O)CC)C(C)(C)CC1 (centres unmarked) [Compound 8, 1-(2-Ethylhexyl)-3-propionyl-4,4-dimethyl-1,4,5,6-tetrahydropyridine] | 105 | 5.3
CCCCCCCCCC(=O)C1=CN(CC)CCC1(C)C [Compound 9, I-Ethyl-3-decanoyl--4,4-dimethyl-1,4,5,6-tetrahydropyridine] | 100 | 5.8
CCCCCCCCCCCCCCCC(=O)C1=CN(CC)CCC1(C)C [Compound 10, 1-Ethyl-3-palmitoyl--4,4-dimethyl-1,4,5,6-tetrahydropyridine] | 77 | 8.9
CCCCCCCCCCCCCC(=O)C1=CN(C)CCC1(C)C [Compound 11, 1-Methyl-3-myristoyl-4,4-dimethyl-1,4,5,6-tetrahydropyridine] | 87 | 7.4
CCCCCCCC(=O)C1=CN(CCCCCCC)CCC1(C)C [Compound 12, 1-Heptyl-3-octanoyl-4,4-dimethyl--1,4,5,6-tetrahydropyridine] | 87 | 7.4
CCCCC(CC)COC(=O)CCC(=O)C1=CN(CC)CCC1(C)C (centres unmarked) [Compound 13, 1-Ethyl-3(2-ethyl-hexylsuccinoyl)--4,4-dimethyl-1,4,5,6-tetrahydropyridine] | 87 | 6.9
CCCCCCCCCC(=O)C1=CN(CCC)CCC1(C)C [Compound 14, 1-Propyl-3-decanoyl-4,4-dimethyl-1,4,5,6-tetrahydropyridine] | 95 | 6.3
CCCCCCCCCC(=O)C1=CN(C(C)C)CCC1(C)C [Compound 15, 1-(-Methylethyl)-3 decanoyl--4,4-dimethyl-1,4,5,6-tetrahydropyridine] | – | 6.3
CCCCCCCCCC(=O)C1=CN(CC(C)C)CCC1(C)C [Compound 16, 1-(2-Methylpropyl) -3-decanoyl--4,4-dimethyl-1,4,5,6-tetrahydropyridine] | 91 | 6.9
CCCCCCCCCCCC(=O)C1=CN(C)CCC1(C)C [Compound 17, 1-Methyl-3-lauroyl--4,4-dimethyl 4,5,6-tetrahydropyridine] | 95 | 6.3
CCCCCCCCCCN1C=C(C(=O)CC)C(C)(C)CC1 [Compound 18, 1-Decyl-3-propionyl--4,4-dimethyl-1,4,5,6-tetrahydropyridine] | 95 | 6.3
CCCCCCCC(=O)C1=CN(C2CCCCC2)CCC1(C)C [Compound 19, 1-Cyclohexyl-3-octanoyl-4,4-dimethyl-1,4,5,6-tetrahydropyridine] | 91 | 6.9
CCCCCCCCCC(=O)C1=CN(C(C)(C)C)CCC1(C)C [Compound 20, 1-(1,1-Dimethyl-ethyl)-3-decanoyl--4,4-dimethyl-1,4,5,6-tetrahydropyridine] | 91 | 6.9
CCCCCCCC(=O)C1=CN(C(C)(C)C)CCC1(C)C [Compound 21, 1-(1,1-Dimethyl-ethyl)-3-octanoyl-4,4-dimethyl-1,4,5,6-tetrahydropyridine] | 100 | 5.8
CCCCCC(=O)C1=CN(C(C)(C)C)CCC1(C)C [Compound 22, 1-(1,1-Dimethyl-ethyl) -3-hexanoyl-4,4-dimethyl-1,4,5,6-tetrahydropyridine] | 110 | 4.8
CCCCCCCC(=O)C1=CN(C(C)C)CCC1(C)C [Compound 23, 1-(1-Methylethyl)-3-octanoyl-4,4-dimethyl-1,4,5,6-tetrahydropyridine] | 105 | 5.3
CC(C)CN1C=C(C(=O)CCCCC(=O)C2=CN(CC(C)C)CCC2(C)C)C(C)(C)CC1 [Compound 24] | 131 | 9.4

Reference: patent publication EP0462123B1, “UV-ABSORBING COMPOUNDS AND COMPOSITIONS” (AUSTRALIAN INSTITUTE OF MARINE SCIENCE, priority 1989, dated 1990)
